Source: patent publication US20210038515A1 (Azurity Pharmaceuticals, Inc., priority 2014, published 2021)

Legend:
in vitro = conditions: human, Caco-2
Experimental: Caco-2 cells are used as an in vitro model of the human intestinal epithelium and permit assessment of the intestinal permeability of potential drugs. Vancomycin is added to either the apical or basolateral side of a confluent monolayer of Caco-2 cells and permeability is measured by monitoring the appearance of the Vancomycin on the opposite side of the monolayer using LC-MS/MS. When performing a bi-directional assay, the efflux ratio (ER) is calculated from the ratio of B->A and A->B permeabilities.
The permeability measure of vancomycin in the apical to basolateral (A->B) and basolateral to apical (B->A) direction across Caco-2 cells, and to determine the efflux ratio.

Clostridium difficile = assay: Agar dilution MIC of vancomycin preparations (Sigma, Cutis), diluent, Na benzoate and Na citrate; type: cell-based; conditions: tested separately at concentrations exceeding those present in the diluent
Experimental: Introduction: The purpose of the study was to compare the MICs obtained with the formulation of vancomycin HCL of the invention (Cutis) to formulations obtained using a vancomycin HCL reference standard powder obtained from Sigma. The Example also involves the analysis of a solution or diluent to determine if it has antimicrobial activity at the concentrations present in the agar dilution test.
The C. difficile were tested by agar dilution according to the procedures in the Clinical and Laboratory Standards Institute. 2012. Methods for antimicrobial susceptibility testing of anaerobic bacteria; approved standard-seventh edition.
Other anaerobic organisms included clinical isolates of Bifidobacterium adolescentis and Bacteroides fragilis. Clostridium difficile ATCC 700057 was included as a quality control strain.
The C. difficile isolates were recovered from patients with CDI during the past two years and stored at −70° C. in 20% skim milk. Ribotyping was performed by another reference laboratory. The strains were taken from the freezer and subcultured at least twice to ensure purity and good growth.
On the day of testing, they were suspended in Brucella broth to the turbidity of the 0.5 McFarland standard for testing.
Stock solution of the Sigma vancomycin was prepared in water and stored at −70° C. On the day of testing, it was thawed and further diluted in water to obtain the desired range of 16-0.125 μg/ml. The Cutis vancomycin (25 mg/ml) was reconstituted on the day of testing and further diluted for a final range of 16-0.125 μg/ml in the test. The antimicrobials were added to molten Brucella agar supplemented with vitamin K and hemin to prepare the plates. Drug-free growth controls were included for testing before and after each set of plates. All testing was done in triplicate.
The organisms were pipetted into the wells of the Steers replicator head and applied to the plates with the multi-pronged replicator. The final concentration of organisms was ˜10^5 CFU/spot.
The plates were incubated in the anaerobic chamber incubator for 44 h and examined for growth.
The Cutis diluent comprises: water, about 0.12% (w/v) citric acid (anhydrous), 0.2% (w/v) sucralose, about 0.05% (w/v) artificial grape flavor, 0.1% (w/v) sodium benzoate, about 0.0002% (w/v) D&C Yellow No. 10 and about 0.000038% (w/v) FD&C Red No. 40.

C. difficile = assay: MIC by reference agar dilution method (CLSI M11-A8) of stored vancomycin preparations; type: cell-based, Clostridium difficile; conditions: for MIC, average of triplicate: Fresh
[1] = tested on: Staphylococcus aureus ATCC 29213; assay: MIC by reference agar dilution method (CLSI M11-A8), quality control strain; type: cell-based; conditions: Fresh
Experimental: The vancomycin hydrochloride solution of the invention and the IV solution were reconstituted to a concentration of 25 mg/ml. […] The MICs were determined by the reference agar dilution method (CLSI M11-A8). All serial two-fold dilutions were prepared on the same day and added to molten agar to prepare plates.
The in vitro activity was tested for three different preparations of vancomycin freshly reconstituted, and stored at ambient and at refrigerated temperatures. The C. difficile strains were selected to represent the most frequently encountered ribotypes.
Plates were prepared by adding 1 ml of lysed sheep blood and two mls of the twofold dilutions of the vancomycin preparations to molten agar. Plates were mixed, poured and allowed to harden. Suspensions of the organisms were applied to the plates using a Steers replicating device that delivered approximately 10^5 cfu/spot. Each preparation was tested in triplicate. Plates were incubated at 37° C. for 48 h.
Plates were examined for growth.

[2] = orally-administered; cited from earlier work

Q: What does the source list for `COCCc1ccc(OCC(O)CNC(C)C)cc1` (stereo not shown) [Metoprolol]?
A: Papp A→B (in vitro): 11.6 ×10⁻⁶ cm/s; Papp B→A (in vitro): 30 ×10⁻⁶ cm/s

Q: Which growth inhibition (Clostridium difficile) does the source give for `O=C([O-])c1ccccc1.[Na+]` [Na benzoate] here?
A: The growth inhibition was “no inhibition”.

Q: With `O=C([O-])CC(O)(CC(=O)[O-])C(=O)[O-].[Na+].[Na+].[Na+]` [Na citrate] as the compound, how does the growth inhibition (Clostridium difficile) read?
A: Its growth inhibition is “no inhibition”.

Q: Which results are given for `CNC(=C[N+](=O)[O-])NCCSCc1ccc(CN(C)C)o1` [Ranitidine]?
A: Papp A→B (in vitro): 0.3 ×10⁻⁶ cm/s; Papp B→A (in vitro): 1.5 ×10⁻⁶ cm/s

Q: For `CN[C@H](CC(C)C)C(=O)N[C@H]1C(=O)N[C@@H](CC(N)=O)C(=O)N[C@H]2C(=O)N[C@H]3C(=O)N[C@H](C(=O)N[C@H](C(=O)O)c4cc(O)cc(O)c4-c4cc3ccc4O)[C@H](O)c3ccc(c(Cl)c3)Oc3cc2cc(c3O[C@@H]2O[C@H](CO)[C@@H](O)[C@H](O)[C@H]2O[C@H]2C[C@](C)(N)[C@H](O)[C@H](C)O2)Oc2ccc(cc2Cl)[C@H]1O.Cl` [Reference standard], which “MIC, average of triplicate” value (C. difficile; ATCC 7000057 QC (C. difficile)) is on record?
A: The value was 1 µg/mL.

Q: What about the “MIC, average of triplicate” value (C. difficile; RMA 24504, ribotype 027) of the same compound?
A: The value was 1 µg/mL.

Q: And the “MIC, average of triplicate” value (C. difficile; RMA 24510, ribotype 027)?
A: The value was 1 µg/mL.

Q: And the “MIC, average of triplicate” value (C. difficile; RMA 24519, ribotype 027)?
A: The value was 1 µg/mL.

Q: What about the “MIC, average of triplicate” value (C. difficile; RMA 24527, ribotype 014) of the same compound?
A: Its value is 1 µg/mL.

Q: And the “MIC, average of triplicate” value (C. difficile; RMA 24529, ribotype 014)?
A: Its value is 1 µg/mL.

Q: And the “MIC, average of triplicate” value (C. difficile; RMA 24541, ribotype 020)?
A: The value was 1 µg/mL.

Q: And the “MIC, average of triplicate” value (C. difficile; RMA 24543, ribotype 020)?
A: Its value is 1 µg/mL.

Q: And the “MIC, average of triplicate” value (C. difficile; RMA 24547, ribotype 014)?
A: The value was 1 µg/mL.

Q: What about the “MIC, average of triplicate” value (C. difficile; RMA 24561, ribotype 078) of the same compound?
A: The value was 1 µg/mL.

Q: And the “MIC, average of triplicate” value (C. difficile; RMA 24567, ribotype 020)?
A: The value was 1 µg/mL.

Q: What about the “MIC, average of triplicate” value (C. difficile; RMA 24575, ribotype 078) of the same compound?
A: Its value is 1 µg/mL.

Q: What about the “MIC, average of triplicate” value (C. difficile; RMA 24594, ribotype 106) of the same compound?
A: The value was 4 µg/mL.

Q: And the “MIC, average of triplicate” value (C. difficile; RMA 24601, ribotype 106)?
A: Its value is 2 µg/mL.

Q: And the “MIC, average of triplicate” value (C. difficile; RMA 24605, ribotype 002)?
A: Its value is 1 µg/mL.

Q: And the “MIC, average of triplicate” value (C. difficile; RMA 24607, ribotype 106)?
A: Its value is 1 µg/mL.

Q: What about the “MIC, average of triplicate” value (C. difficile; RMA 24608, ribotype 002) of the same compound?
A: Its value is 1 µg/mL.

Q: What about the “MIC, average of triplicate” value (C. difficile; RMA 24615, ribotype 005) of the same compound?
A: Its value is 2 µg/mL.

Q: What about the “MIC, average of triplicate” value (C. difficile; RMA 24628, ribotype 012) of the same compound?
A: The value was 1 µg/mL.

Q: And the “MIC, average of triplicate” value (C. difficile; RMA 24641, ribotype 001/072)?
A: Its value is 1 µg/mL.

Q: What about the “MIC, average of triplicate” value (C. difficile; RMA 24643, ribotype 001/072) of the same compound?
A: Its value is 1 µg/mL.

Q: And the “MIC, average of triplicate” value (C. difficile; RMA 24646, ribotype 001/072)?
A: The value was 1 µg/mL.

Q: What about the “MIC, average of triplicate” value (C. difficile; RMA 24655, ribotype 005) of the same compound?
A: The value was 2 µg/mL.

Q: What about the “MIC, average of triplicate” value (C. difficile; RMA 24678, ribotype 012) of the same compound?
A: The value was 4 µg/mL.

Q: And the “MIC, average of triplicate” value (C. difficile; RMA 24683, ribotype 027)?
A: Its value is 2 µg/mL.

Q: What about the “MIC, average of triplicate” value (C. difficile; RMA 24690, ribotype 027) of the same compound?
A: The value was 4 µg/mL.

Q: What about the “Average MIC (geometric mean, all 25 strains)” value (C. difficile; reference standard powder stock solution stored at −70 C) of the same compound?
A: Its value is 1.5 µg/mL.

Q: What about the “MIC, average of triplicate” value ([1]; ATCC 29213 SA QC (S. aureus)) of the same compound?
A: The value was 2 µg/mL.

Q: And the “vancomycin MIC from triplicate test, best of 3 values” ([1]; ATCC 29213 SA QC)?
A: Its value is 2 µg/mL.

Q: With `CN[C@H](CC(C)C)C(=O)N[C@H]1C(=O)N[C@@H](CC(N)=O)C(=O)N[C@H]2C(=O)N[C@H]3C(=O)N[C@H](C(=O)N[C@H](C(=O)O)c4cc(O)cc(O)c4-c4cc3ccc4O)[C@H](O)c3ccc(c(Cl)c3)Oc3cc2cc(c3O[C@@H]2O[C@H](CO)[C@@H](O)[C@H](O)[C@H]2O[C@H]2C[C@](C)(N)[C@H](O)[C@H](C)O2)Oc2ccc(cc2Cl)[C@H]1O` [vancomycin] as the compound, how does the absorption [2] read?
A: Its absorption is “cannot be absorbed”.

Q: What about the “concentrations in the colon” value [2] of the same compound?
A: The value was 500 to 1000 µg/mL.
